In patent US10947575B2, “Rapid antimicrobial susceptibility test, based on an analysis of changes in morphology and growth pattern of a microbial cell under different concentrations of various antimicrobial agents, and automated cell image analysis system therefor” (priority 2014, dated 2021):
Like-named read-outs stand apart in the source and are kept apart here.

Legend:
E. coli ATCC 25922 [1] = experiment: MIC by the proposed method (SCMA), from morphology and growth pattern changes; format: cell-based; details: time to result 3 hr
Excerpt: (§1) The bacterial cell in MAC 2.0™ (QuantaMatrix) was monitored through a S Plan Fluor ELWD 60X (NA 1.49) lens of an inverted optical microscope (Eclipse Ti—Nikon, IX71—Olympus) provided in a heating system, and then, an electron multiplying CCD camera (QuantEM:512SC Photometrics for Eclipse Ti) was used to obtain images of a region where is adjacent to an interface between the agarose well of MAC 2.0™ and the antimicrobial agents well, over time. […] In the AST method according to the inventive concept, minimal inhibitory concentration (MIC) was measured using the changes in morphology and growth pattern of the four reference strains (i.e., E. coli ATCC 25922, S. aureus ATCC 29213, P. aeruginosa ATCC 27853, and E. faecalis ATCC 29212) and was compared with MIC quality control (QC) per CLSI guidelines.

S. aureus ATCC 29213 [2] = experiment: as above; format: cell-based; details: time to result 4 hr
Excerpt: as §1

E. faecalis ATCC 29212 [3] = experiment: as above; format: cell-based; details: time to result 4 hr
Excerpt: as §1

S. aureus ATCC 29213 [4] = details: time to result 16~20 hr; cited from earlier work
E. coli ATCC 25922 [5] = details: time to result 16~20 hr; cited from earlier work
E. coli ATCC 25922 [6] = experiment: AST by analysis of changes in morphology and growth pattern of a microbial cell (MAC 2.0 chip imaging); format: cell-based; details: Normal / Filament / Swelling
Excerpt: (§2) Four reference strains (E. coli ATCC 25922, S. aureus ATCC 29213, P. aeruginosa ATCC 27853, and E. faecalis ATCC 29212) were used as objective strains, in accordance with Clinical and Laboratory Standards Institute (CLSI) guidelines. […] The bacterial cell in MAC 2.0TM (QuantaMatrix) was monitored through a S Plan Fluor ELWD 60X (NA 1.49) lens of an inverted optical microscope (Eclipse Ti-Nikon, IX71-Olympus) provided in a heating system, and then, an electron multiplying CCD camera (QuantEM:512SC Photometrics for Eclipse Ti) was used to obtain images of a region where is adjacent to an interface between the agarose well of MAC 2.0TM and the antimicrobial agents well, over time.

S. aureus ATCC 29213 [7] = experiment: as above; format: cell-based; details: RRG = relatively rapid growth, RSG = relatively slow growth
Excerpt: as §2

E. faecalis ATCC 29212 [8] = experiment: as above; format: cell-based; details: RRG = relatively rapid growth, RSG = relatively slow growth
Excerpt: as §2

E. faecalis ATCC 29212 [9] = details: time to result 16~20 hr, cited from earlier work
P. aeruginosa ATCC 27853 [10] = experiment: MIC by the proposed method (SCMA), from morphology and growth pattern changes; format: cell-based; details: time to result 3 hr
Excerpt: as §1

P. aeruginosa ATCC 27853 [11] = details: time to result 16~20 hr; cited from earlier work
P. aeruginosa ATCC 27853 [12] = experiment: AST by analysis of changes in morphology and growth pattern of a microbial cell (MAC 2.0 chip imaging); format: cell-based; details: Normal / Filament / Swelling
Excerpt: as §2

CC1(C)S[C@@H]2[C@H](NC(=O)[C@H](N)c3ccccc3)C(=O)N2[C@H]1C(=O)O [Ampicillin]
SCMA Results (MIC) (E. coli ATCC 25922 [1]): 2~4 | SCMA Results (MIC) (S. aureus ATCC 29213 [2]; unit assumed): 1 µg/mL | SCMA Results (MIC) (E. faecalis ATCC 29212 [3]): 0.5~1 | CLSI QC range (MIC) (S. aureus ATCC 29213 [4]): 0.5~2 | CLSI QC range (MIC) (E. coli ATCC 25922 [5]): 2~8 | Criteria (change in morphology and growth pattern) (E. coli ATCC 25922 [6]): Filament | Criteria (change in morphology and growth pattern) (S. aureus ATCC 29213 [7]): Normal | Criteria (change in morphology and growth pattern) (E. faecalis ATCC 29212 [8]): Normal | CLSI QC range (MIC) (E. faecalis ATCC 29212 [9]): 0.5~2

Gentamicin
SCMA Results (MIC) (E. coli ATCC 25922 [1]; unit assumed): 0.25 µg/mL | SCMA Results (MIC) (S. aureus ATCC 29213 [2]): 0.25~0.5 | SCMA Results (MIC) (P. aeruginosa ATCC 27853 [10]): 0.5~1 | SCMA Results (MIC) (E. faecalis ATCC 29212 [3]): ≤ 500 µg/mL | CLSI QC range (MIC) (S. aureus ATCC 29213 [4]): 0.12~1 | CLSI QC range (MIC) (P. aeruginosa ATCC 27853 [11]): 0.5~2 | CLSI QC range (MIC) (E. coli ATCC 25922 [5]): 0.25~1 | Criteria (change in morphology and growth pattern) (E. coli ATCC 25922 [6]): Normal | Criteria (change in morphology and growth pattern) (S. aureus ATCC 29213 [7]): Normal growth | Criteria (change in morphology and growth pattern) (P. aeruginosa ATCC 27853 [12]): Normal growth | Criteria (change in morphology and growth pattern) (E. faecalis ATCC 29212 [8]): Normal | CLSI QC range (MIC) (E. faecalis ATCC 29212 [9]; unit assumed): ≤ 500 µg/mL
